Measured values as given in the NIST ThermoML archive (doi:10.1016/j.jct.2016.10.023).

Test: xn = mol fraction of the nth substance listed
Conditions: Constant-volume piezometry

CCCCC [pentane] + CCCO
Conditions	mass density [kg/m3]
533.15 K, 7168 kPa, Fluid (supercritical or subcritical phases), x1 = 0.8	234.59
533.15 K, 7364 kPa, Fluid (supercritical or subcritical phases), x1 = 0.8	245.22
533.15 K, 7629 kPa, Fluid (supercritical or subcritical phases), x1 = 0.2	378.44
533.15 K, 7638 kPa, Fluid (supercritical or subcritical phases), x1 = 0.8	258.44
533.15 K, 7786 kPa, Fluid (supercritical or subcritical phases), x1 = 0.2	383.24
533.15 K, 7963 kPa, Fluid (supercritical or subcritical phases), x1 = 0.8	272.4
533.15 K, 8071 kPa, Fluid (supercritical or subcritical phases), x1 = 0.9	281.87
533.15 K, 8098 kPa, Fluid (supercritical or subcritical phases), x1 = 0.2	391.08
533.15 K, 8423 kPa, Fluid (supercritical or subcritical phases), x1 = 0.8	288.24
533.15 K, 8569 kPa, Fluid (supercritical or subcritical phases), x1 = 0.9	301.54
533.15 K, 8748 kPa, Fluid (supercritical or subcritical phases), x1 = 0.8	299.05
533.15 K, 9002 kPa, Fluid (supercritical or subcritical phases), x1 = 0.9	312.17
533.15 K, 9374 kPa, Fluid (supercritical or subcritical phases), x1 = 0.2	418.49
533.15 K, 9413 kPa, Fluid (supercritical or subcritical phases), x1 = 0.8	315.21
533.15 K, 10061 kPa, Fluid (supercritical or subcritical phases), x1 = 0.9	333.87
533.15 K, 10217 kPa, Fluid (supercritical or subcritical phases), x1 = 0.8	333.69
533.15 K, 10835 kPa, Fluid (supercritical or subcritical phases), x1 = 0.8	345.21
533.15 K, 11530 kPa, Fluid (supercritical or subcritical phases), x1 = 0.9	353.95
533.15 K, 12119 kPa, Fluid (supercritical or subcritical phases), x1 = 0.8	361.76
533.15 K, 13530 kPa, Fluid (supercritical or subcritical phases), x1 = 0.2	470.12
533.15 K, 17294 kPa, Fluid (supercritical or subcritical phases), x1 = 0.9	407.1
533.15 K, 18236 kPa, Fluid (supercritical or subcritical phases), x1 = 0.8	418.01
533.15 K, 19667 kPa, Fluid (supercritical or subcritical phases), x1 = 0.2	509.31
533.15 K, 29155 kPa, Fluid (supercritical or subcritical phases), x1 = 0.8	466.47
533.15 K, 29696 kPa, Fluid (supercritical or subcritical phases), x1 = 0.2	546.72
533.15 K, 39686 kPa, Fluid (supercritical or subcritical phases), x1 = 0.8	495.86
533.15 K, 44516 kPa, Fluid (supercritical or subcritical phases), x1 = 0.2	580.98
543.15 K, 1370 kPa, Gas, x1 = 0.8	22.5
543.15 K, 1634 kPa, Gas, x1 = 0.2	24.9
543.15 K, 2088 kPa, Gas, x1 = 0.8	36.65
543.15 K, 3070 kPa, Gas, x1 = 0.8	58.36
543.15 K, 3378 kPa, Gas, x1 = 0.2	52.95
543.15 K, 3671 kPa, Gas, x1 = 0.8	73.72
543.15 K, 3909 kPa, Fluid (supercritical or subcritical phases), x1 = 0.9	83.3
543.15 K, 4468 kPa, Gas, x1 = 0.2	91.32
543.15 K, 4745 kPa, Fluid (supercritical or subcritical phases), x1 = 0.8	106.3
543.15 K, 5031 kPa, Fluid (supercritical or subcritical phases), x1 = 0.2	114.24
543.15 K, 5063 kPa, Fluid (supercritical or subcritical phases), x1 = 0.9	123.23
543.15 K, 5339 kPa, Fluid (supercritical or subcritical phases), x1 = 0.9	133.99
543.15 K, 5679 kPa, Fluid (supercritical or subcritical phases), x1 = 0.2	150.2
543.15 K, 5755 kPa, Fluid (supercritical or subcritical phases), x1 = 0.8	140.17
543.15 K, 6004 kPa, Fluid (supercritical or subcritical phases), x1 = 0.9	163.8
543.15 K, 6026 kPa, Fluid (supercritical or subcritical phases), x1 = 0.2	175.44
543.15 K, 6054 kPa, Fluid (supercritical or subcritical phases), x1 = 0.8	155.89
543.15 K, 6187 kPa, Fluid (supercritical or subcritical phases), x1 = 0.2	189.45
543.15 K, 6358 kPa, Fluid (supercritical or subcritical phases), x1 = 0.8	169.62
543.15 K, 6471 kPa, Fluid (supercritical or subcritical phases), x1 = 0.2	219.88
543.15 K, 6471 kPa, Fluid (supercritical or subcritical phases), x1 = 0.8	175.86
543.15 K, 6570 kPa, Fluid (supercritical or subcritical phases), x1 = 0.9	189.27
543.15 K, 6584 kPa, Fluid (supercritical or subcritical phases), x1 = 0.8	180.65
543.15 K, 6716 kPa, Fluid (supercritical or subcritical phases), x1 = 0.2	245.23
543.15 K, 6834 kPa, Fluid (supercritical or subcritical phases), x1 = 0.2	258.94
543.15 K, 6836 kPa, Fluid (supercritical or subcritical phases), x1 = 0.8	192.97
543.15 K, 6846 kPa, Fluid (supercritical or subcritical phases), x1 = 0.9	202.18
543.15 K, 6875 kPa, Fluid (supercritical or subcritical phases), x1 = 0.2	262.64
543.15 K, 6963 kPa, Fluid (supercritical or subcritical phases), x1 = 0.2	272.09
543.15 K, 7154 kPa, Fluid (supercritical or subcritical phases), x1 = 0.2	290.25
543.15 K, 7246 kPa, Fluid (supercritical or subcritical phases), x1 = 0.9	220.47
543.15 K, 7269 kPa, Fluid (supercritical or subcritical phases), x1 = 0.8	213.64
543.15 K, 7363 kPa, Fluid (supercritical or subcritical phases), x1 = 0.2	306.52
543.15 K, 7405 kPa, Fluid (supercritical or subcritical phases), x1 = 0.8	219.4
543.15 K, 7419 kPa, Fluid (supercritical or subcritical phases), x1 = 0.2	310.74
543.15 K, 7511 kPa, Fluid (supercritical or subcritical phases), x1 = 0.2	318.45
543.15 K, 7520 kPa, Fluid (supercritical or subcritical phases), x1 = 0.9	232.83
543.15 K, 7591 kPa, Fluid (supercritical or subcritical phases), x1 = 0.9	236.29
543.15 K, 7689 kPa, Fluid (supercritical or subcritical phases), x1 = 0.9	240.69
543.15 K, 7747 kPa, Fluid (supercritical or subcritical phases), x1 = 0.8	234.47
543.15 K, 7760 kPa, Fluid (supercritical or subcritical phases), x1 = 0.9	244
543.15 K, 7964 kPa, Fluid (supercritical or subcritical phases), x1 = 0.2	340.91
543.15 K, 7983 kPa, Fluid (supercritical or subcritical phases), x1 = 0.8	245.1
543.15 K, 8042 kPa, Fluid (supercritical or subcritical phases), x1 = 0.2	343.7
543.15 K, 8294 kPa, Fluid (supercritical or subcritical phases), x1 = 0.8	258.31
543.15 K, 8708 kPa, Fluid (supercritical or subcritical phases), x1 = 0.8	272.26
543.15 K, 8845 kPa, Fluid (supercritical or subcritical phases), x1 = 0.9	281.73
